Assay [1] relates to T. brucei brucei strain BF427. The assay can be described thus: T. brucei growth inhibition assay. The assay is classed as cell-based, Trypanosoma brucei brucei. The conditions noted are these: for fold enhancement of potency with respect to compound 1: vs 1, T. brucei EC50; for activity on T. brucei cells (in words): T. brucei EC50 assay; for EC50: Trypanosoma brucei, 48 h, read-out: EC50, concentration required to inhibit growth by 50% of T. brucei brucei, strain BF427, 48H, AlamarBlue. On the technique in general: Alamar Blue is a resazurin reagent that responds to reducing activity.

The test system of assay [2] is T. brucei brucei (strain TREU667). The assay can be described thus: Chronic. The assay is classed as in vivo, mouse. The conditions noted are these: for relapse with parasites in the blood / suppression of parasitemia during treatment phase: TREU667, 50 mg/kg twice a day oral day 21 to 34; for number of mice free of parasitemia/number of mice in the group: same dosing.

[3] abbreviates: day 35 post-infection, day 1 post-treatment.
[4] abbreviates: day 36 post-infection, day 2 post-treatment.
The mark [5] stands for this setting: day 37 post-infection, day 3 post-treatment.
Setting [6] is: day 39 post-infection, day 5 post-treatment.
Setting [7] is: day 38 post-infection, day 4 post-treatment.
Where [8] appears, read: day 40 post-infection, day 6 post-treatment.

Structures are written as SMILES. Where a name gives a salt, the structure may show the parent alone.

23 compounds from paper PMC5419589 (Bioorganic & medicinal chemistry, 2016) can be followed below.

`Cl.NCCN(C(=O)c1ccc(Cl)cc1Cl)c1ccc(Cl)cc1` [Compound 2, N-(2-Aminoethyl)-2,4-dichloro-N-(4-chlorophenyl)benzamide]: the “fold enhancement of potency with respect to compound 1” value (“fold enhancement of potency” below) in assay [1] was determined as 4 fold.

Regarding `Cl.NCCN(C(=O)c1ccc(Cl)cc1Cl)c1ccc(Br)cc1` [Compound 3, N-(2-Aminoethyl)-N-(4-bromophenyl)-2,4-dichlorobenzamide hydrochloride], in assay [1], the “fold enhancement of potency” value was found to be 4 fold.

Consider `COc1ccc(N(CCN)C(=O)c2ccc(Cl)cc2Cl)cc1.Cl` [Compound 8, N-(2-Aminoethyl)-2,4-dichloro-N-(4-methoxyphenyl)benzamide hydrochloride], for which the “activity on T. brucei cells (in words)” value in assay [1] is reported as “eliminated activity”.

Consider `Cl.NCCN(C(=O)c1ccc(Cl)cc1Cl)c1ccc([N+](=O)[O-])cc1` [Compound 9, N-(2-Aminoethyl)-2,4-dichloro-N-(4-nitrophenyl)benzamide hydrochloride], for which the “activity on T. brucei cells (in words)” value in assay [1] is reported as “eliminated activity”.

For the compound `Cl.NCCN(C(=O)c1ccc(Cl)cc1Cl)c1ccc(N)cc1` [Compound 10, N-(2-Aminoethyl)-N-(4-aminophenyl)-2,4-dichlorobenzamide], the “activity on T. brucei cells (in words)” value in assay [1] was “eliminated activity”.

Take `Cl.NCCN(C(=O)c1ccc(Cl)cc1Cl)c1cccc(Cl)c1` [Compound 11, N-(2-Aminoethyl)-2,4-dichloro-N-(3-chlorophenyl)benzamide hydrochloride]: the “fold reduction of potency compared to compound 2” value in assay [1] (vs 2, T. brucei EC50) was 10 fold.

In the case of `Cl.NCCN(C(=O)c1ccc(Cl)cc1Cl)c1ccc(Cl)cc1Cl` [Compound 12, N-(2-Aminoethyl)-2,4-dichloro-N-(2,4-dichlorophenyl)benzamide], the “fold enhancement of potency” value in assay [1] is “more than 2 fold”.

On to `Cl.NCCN(C(=O)c1ccc(Cl)cc1Cl)c1ccc(Oc2ccc(Cl)cc2)cc1` [Compound 16, N-(2-Aminoethyl)-2,4-dichloro-N-[4-(4-chlorophenoxy)phenyl] benzamide hydrochloride], for which, in assay [1], the “fold enhancement of potency” value worked out at 7 fold.

On to `Cl.NCCN(C(=O)c1ccc(Cl)cc1Cl)c1ccc(Oc2cccc(Cl)c2)cc1` [Compound 17, N-(2-Aminoethyl)-2,4-dichloro-N-[4-(3-chlorophenoxy)phenyl] benzamide hydrochloride], for which, in assay [1], the “fold enhancement of potency” value is on record as 4 fold.

For the compound `Cl.NCCN(C(=O)c1ccccc1Cl)c1ccc(Cl)cc1` [Compound 23, N-(2-Aminoethyl)-2-chloro-N-(4-chlorophenyl)benzamide hydrochloride], the “fold more active than 4-chlorobenzoyl derivative 21” value in assay [1] (vs 21) is recorded as ~8 fold. The “fold more active than 3-chloro (22)” value in assay [1] (vs 22) was determined as 3 fold.

For the compound `Cc1ccccc1C(=O)N(CCN)c1ccc(Cl)cc1.Cl` [Compound 24, N-(2-Aminoethyl)-N-(4-chlorophenyl)-2-methylbenzamide hydrochloride], the “fold more active than 4-methyl derivative 25” value in assay [1] (vs 25) is 14 fold.

In the case of `COc1ccccc1C(=O)N(CCN)c1ccc(Cl)cc1.Cl` [Compound 26, N-(2-Aminoethyl)-N-(4-chlorophenyl)-2-methoxybenzamide hydrochloride], in assay [1] (vs 23, 24), the “times less active compared to 23, 24” value was “at least 5 fold”. Further, the “times more potent than 4-methoxy (27)” value in assay [1] (vs 27) is given as “at least 4 fold”.

Regarding `Cl.NCCN(C(=O)c1cc([N+](=O)[O-])ccc1Cl)c1ccc(Cl)cc1` [Compound 36, N-(2-Aminoethyl)-2-chloro-N-(4-chlorophenyl)-5-nitrobenzamide hydrochloride], in assay [1] (vs 23), the “times less potent than 2-chloro analogue 23” value is listed as 3 fold.

With `Cl.NCCN(C(=O)c1ccc(F)cc1F)c1ccc(Cl)cc1` [Compound 40, N-(2-Aminoethyl)-N-(4-chlorophenyl)-2,4-difluorobenzamide hydrochloride], the “fold more active than 2-floro (30) or 4-fluoro (28) derivatives” value in assay [1] (vs 30 or 28) is “at least 3 fold”.

As for `Cl.NCCN(C(=O)c1c(F)c(F)c(F)c(F)c1F)c1ccc(Cl)cc1` [Compound 41, N-(2-Aminoethyl)-N-(4-chlorophenyl)-2,3,4,5,6-pentafluorobenzamide hydrochloride], in assay [1] (vs 20), the “fold improvement in activity compared to 20” value was 26 fold.

For `NCCN(C(=O)c1ccccc1C(F)(F)F)c1ccc(Cl)cc1` [Compound 42, N-(2-aminoethyl)-N-(4-chlorophenyl)-2-(trifluoromethyl) benzamide hydrochloride], in assay [1], the EC50 came out at 0.18 µM.

For `CCN(C(=O)c1ccc(Cl)cc1Cl)c1ccc(F)cc1` [Compound 45, 2,4-Dichloro-N-ethyl-N-(4-fluorophenyl)benzamide], in assay [1], the “activity on T. brucei cells (in words)” value is “eliminated anti-T. brucei activity” and the EC50 is > 10 µM.

Regarding `CC(=O)NCCN(C(=O)c1ccc(Cl)cc1Cl)c1ccc(Cl)cc1` [Compound 46, N-{2-[N-(4-Chlorophenyl)-1-(2,4-dichlorophenyl)formamido]ethyl}acetamide], the “activity on T. brucei cells (in words)” value in assay [1] is given as “eliminated anti-T. brucei activity”.

With `CN(C)CCN(C(=O)c1ccc(Cl)cc1Cl)c1ccc(Cl)cc1` [Compound 47, 2,4-Dichloro-N-(4-chlorophenyl)-N-[2-(dimethylamino)ethyl] benzamide], the “activity on T. brucei cells (in words)” value in assay [1] is given as “eliminated anti-T. brucei activity”.

With `CC(C)c1ccc(COc2ccc(N(CCN)C(=O)c3cccnc3Cl)cc2)cc1.Cl` [Compound 72, N-(2-Aminoethyl)-2-chloro-N-(4-{[4-(propan-2-yl)phenyl]methoxy}phenyl)pyridine-3-carboxamide hydrochloride], in assay [2], the “relapse with parasites in the blood” value is recorded as “all mice relapsed”. In addition, the “suppression of parasitemia during treatment phase” value in assay [2] was “complete suppression”. The “number of mice free of parasitemia/number of mice in the group” value is given as 5/5 in assay [2] (setting [3]), 5/5 in assay [2] (setting [4]), 4/5 in assay [2] (setting [5]) and 2/5 in assay [2] (setting [6]).

`Cc1cc(C)cc(COc2ccc(N(CCN)C(=O)c3ccc(Cl)cc3Cl)cc2)c1.Cl` [Compound 76, N-(2-Aminoethyl)-2,4-dichloro-N-{4-[(3,5-dimethylphenyl)methoxy]phenyl}benzamide hydrochloride]: the “relapse with parasites in the blood” value in assay [2] is recorded as “all mice relapsed”. The “suppression of parasitemia during treatment phase” value in assay [2] is listed as “partial suppression”. Also, the “number of mice free of parasitemia/number of mice in the group” value is 3/4 in assay [2] (setting [3]); 3/4 in assay [2] (setting [4]); 3/4 in assay [2] (setting [5]); 3/4 in assay [2] (setting [7]); 2/4 in assay [2] (setting [6]); 1/4 in assay [2] (setting [8]).

Regarding `N=C(N)c1ccc(/N=N/Nc2ccc(C(=N)N)cc2)cc1` [Diminazene, diminazene aceturate, reference compound], the “number of mice free of parasitemia/number of mice in the group” value in assay [2] (setting [3]), in assay [2] (setting [4]), in assay [2] (setting [5]), in assay [2] (setting [7]), in assay [2] (setting [6]) and in assay [2] (setting [8]) was 3/3 in each case. Also, the “number of mice free of parasitemia/number of mice in the group” value in assay [2] (day 41–42 post-infection, day 7–8 post-treatment) is listed as 3/3; in assay [2] (day 43–45 post-infection, day 9–11 post-treatment) it was 3/3; in assay [2] (day 46–49 post-infection, day 12–15 post-treatment), 1/3; in assay [2] (day 50–51 post-infection, day 16–17 post-treatment), 0/3.

In the case of `CC1(C)OB(O)c2cc(NC(=O)c3ccc(F)cc3C(F)(F)F)ccc21` [SCYX-7158, reference compound], the “cure in late-stage model (in words)” value in assay [2] (50 mg/kg PO twice per day) is “cured all mice”.
